Laboratory results published in patent publication US20200087625A1, “METHODS FOR ISOLATING, EXPANDING AND ADMINISTERING CANCER SPECIFIC CD8+ T CELLS” (priority 2017, published 2020).

Legend:
[1] = tested on: SCC7; test: SCC7 tumor model, 1V270 with systemic anti-PD-1 agent; format: in vivo, C3H mice; conditions: day 21, flow cytometry
Procedure: FIGS. 2A-2F. […] C3H mice (n=5-8/group) were implanted with SCC7 and carcinoma cells 1A. Tumors and spleens were harvested on day 21 and T cells in TILs or spleens were analyzed by flow cytometry. (A and B) Tumor infiltrating CD8^+ T cells were gated on CD45^+CD3^+CD8^+ populations. Number of CD8^+ T cells (A) and IFNγ^+CD8^+ cells (B) per tumor volume (mm^3) were calculated and plotted. (C) Representative immunohistochemistry images of the tumors (day 21) stained for CD8 (red) and DAPI (blue). Scale bar: 20 μm. (D) Number of IFNγ^+CD8^+ T cells in spleens. Bars indicate mean±SEM. Each dot represents an individual animal and bars indicate mean±SEM in A, B and D. P*<0.05, **P<0.01 (Kruskal-Wallis test with Dunn's post hoc test), n=5-8/group. (E) Tumor volumes at the injected sites were plotted against the log of the number of IFNγ^+CD8^+ T cells in the tumor microenvironment. […] (F) The tumor volumes (day 21, injected side) were plotted against the log of the numbers of IFNγ^+CD8^+ T cells in the spleen.
FIGS. 3A-3E. […] (A-D) SCC7-bearing mice (n=4/group) were treated as described in FIG. 2. Tumors and spleens were harvested on day 21 and CD8^+ T cells were isolated using MACSMicroBead. RNA was isolated and next-generation sequencing was performed. (A) Representative data of TCR repertoire clonality of CD8^+ T cells. […]

[2] = tested on: B16-GLF cells; test: IV metastasis model of B16 melanoma; format: in vivo, mice; conditions: systemic 1V270 day -1
Procedure: FIGS. 27A-27D. […] Therapeutic effects of 1V270 were evaluated in IV metastatic models of 816 melanoma (A, B) and LLC (C, D). BG-albino mice (n=B-10) (A, C), C57BL6 wild type mice (n=15-20) (B and D), were i.p. administered with 200 μg 1V270 or vehicle!iNext day, 5×10^5 B16-GLF cells (A) or 1×10^5 LLC-GLF cells (c) were i.v. administered (A,C). The tumor signals were quantified by IVIS at day 14. […] (B,D) The mice were monitored daily and were euthanized upon reaching the criteria according to UCSD IACUC guidelines. The survival data were analyzed by Log-Rank test. Data were pooled from 2 independent experiments showing similar results and were analyzed by Living Image® software. […] Statistical differences were analyzed by the Mann-Whitney U test comparing 1V270 treatment groups against the vehicle. **P<0.05.
GFP and luciferase (GLF)-expressing tumor cells (2×10^4 of 4T1-GLF, 5×10^5 of B16-GLF, and […] of LLC-GLF) were i.v. injected into BALB/c mice for 4T1 models, BG-albino or wild-type C57BU6 for B16 melanoma or LLC models). […] Image data were acquired by 1 Ss exposure using the IVIS Spectrum and analyzed using the Living Image software, version 4.5.2 (Perkin Elmer, Waltham, Mass.). We confirmed that the tumor signals in the lungs at day 10 correlated with the number of lung metastasis determined on day 21, as well as the overall survival (Supplemental figures 10). […]

With `CCCCCCCCC=CCCCCCCCC(=O)OCC(COP(=O)(O)OCCNC(=O)c1ccc(Cn2c(=O)[nH]c3c(N)nc(OCCOC)nc32)cc1)OC(=O)CCCCCCCC=CCCCCCCCC` (stereo not drawn) [1V270] the “CD8+ population in TILs” value [1] was “increased CD8^+ population in TILs”, the “lung metastasis (IVIS tumor signal)” value ([2]; B16-GLF, day 14) was “inhibited lung metastasis by day 14” and the mouse survival ([2]; B16) was “prolonged mouse survival”.
